Assay: Acute intervention: nutrikinetics of plasma metabolites after ingestion of O. europaea extract (untargeted HPLC-ESI-QTOF-MS)
Experimental: A total of 25 healthy individuals participated, with an average age of 27 ± 9 years and a mean body mass index (BMI) of 23 ± 3 kg/m^2. None of the participants were taking any medications or nutritional supplements nor did they have any chronic diseases or gastrointestinal issues. The sample size was established based on findings from previous bioavailability research.[14] All participants provided informed consent before participating in the study.
The intervention study was carried out at Miguel Hernández University. Following an overnight fast, the volunteers were categorized into the subsequent groups: a subgroup to evaluate the LC leaf extract (n = 8), another for the OE leaf extract (n = 8), and the placebo subgroup (n = 9). This was a double-blind study, in which sample collection and treatment were carried out uniformly across all three subgroups.
Water was provided ad libitum. Prior to the ingestion of the capsule, a nurse inserted a cannula into the ulnar vein of each volunteer’s nondominant arm, and blood samples were drawn into EDTA-coated tubes at baseline (t = 0). Blood samples were then collected at 0.5, 1, 2, 4, 6, 8, and 10 h after the consumption of the 500 mg capsule. Plasma was separated through centrifugation (10 min at 3000 rpm and 4 °C) and stored at −80 °C until further analysis.
Plasma samples were initially treated using a mixture of methanol and ethanol (50:50; v:v) to remove proteins, following previously reported protocols.[19] During the sample treatment, pooled quality controls (pooled-QC) were prepared by combining equal aliquots from each sample. These QC samples were processed by using the same protocols as the experimental biological samples.
A reversed-phase analytical C18 column (Agilent Zorbax Eclipse Plus, 1.8 μm, 4.6 × 150 mm^2) with a protective cartridge with the same packing was used. MS data were acquired in negative ionization mode, operating in full scan across a mass-to-charge ratio (m/z) range of 50–1700. The analytical method used was adapted from that described by Villegas-Aguilar et al.[19]
Metabolite nutrikinetics were studied using PKSolver, an add-in program for pharmacokinetic data analysis in Microsoft Excel. The time to reach the maximum concentration (observed Tmax) was calculated for each significant metabolite. As an untargeted metabolomic approach was used to detect the circulating metabolites, these were not quantified. Therefore, the maximum concentration (Cmax) and area under the curve (AUC) parameters were calculated in a relative way by using the deconvoluted chromatographic areas. […] Statistical differences were determined by unpaired t tests. All p values less than 0.05 were considered statistically significant.

[1] = 0.5 h after O. europaea extract
[2] = human plasma, 500 mg capsule of O. europaea (OE) extract, oral, mean ± SD

Row | Compound | mean chromatographic area in plasma, T0.5 [1] | mean chromatographic area in plasma, T1 (1 h after O. europaea extract) | mean chromatographic area in plasma, T2 (2 h after O. europaea extract) | mean chromatographic area in plasma, T4 (4 h after O. europaea extract) | mean chromatographic area in plasma, T6 (6 h after O. europaea extract) | mean chromatographic area in plasma, T8 (8 h after O. europaea extract) | mean chromatographic area in plasma, T10 (10 h after O. europaea extract) | Cmax: relative maximum plasma level [2] | observed Tmax: time required to reach Cmax [2] [h] | further results
1 | COc1cc(-c2oc3cc(O[C@@H]4O[C@@H](C)[C@H](O)[C@@H](O)[C@H]4O)cc(O)c3c(=O)c2O[C@@H]2O[C@H](CO)[C@@H](O)[C@H](O)[C@H]2O)ccc1O [isorhamnetin 3-O-glucoside-7-O-rhamnoside] | 34 | 130 | 14 | 0 | 0 | 0 | 0 | 133 ± 18 relative chromatographic area | 0.9 ± 0.2 | –
2 | O=C(O)CCCCCCCCC(=O)O [decanedioic acid isomer 2, decanedioic acid] | 0 | 0 | 26 | 47 | 84 | 38 | 60 | 112 ± 11 relative chromatographic area | 6 ± 3 | –
3 | O=C(O)CCCCCCCCC(=O)O [decanedioic acid isomer 1, decanedioic acid] | 0 | 169 | 232 | 167 | 68 | 11 | 0 | 232 ± 48 relative chromatographic area | 2 ± 0 | –
4 | C/C=C1/[C@H](O[C@@H]2O[C@H](CO)[C@@H](O)[C@H](O)[C@H]2O)OC=C(C(=O)OC)[C@H]1CC(=O)OCCc1ccc(O)c(O)c1 [oleuropein] | – | – | – | – | – | – | – | – | – | detection in plasma samples (in vivo): not detected as being significant in plasma samples
5 | oleuropein aglycone glucuronide [oleuropein aglycone glucuronide isomer 1] | – | – | – | – | – | – | – | – | – | Cmax: relative maximum plasma level (human, in vivo, po, 500 mg): 244 ± 128 relative chromatographic area; observed Tmax: time required to reach Cmax (human, in vivo, po, 500 mg): 0.8 ± 0.2 h; mean chromatographic area in plasma, T0.5 (in vivo): 186; mean chromatographic area in plasma, T1 (in vivo): 202; mean chromatographic area in plasma, T2 (in vivo): 29; mean chromatographic area in plasma, T4 (in vivo): 0; mean chromatographic area in plasma, T6 (in vivo): 0; mean chromatographic area in plasma, T8 (in vivo): 0; mean chromatographic area in plasma, T10 (in vivo): 0
6 | OC[C@H]1O[C@@H](OCc2ccoc2)[C@H](O)[C@@H](O)[C@@H]1O (single isomer, unassigned; isomer 2) [3-furanmethanol glucoside isomer 2, 3-furanmethanol glucoside] | 625 | 1234 | 961 | 483 | 250 | 113 | 0 | 1234 ± 489 relative chromatographic area | 1 ± 0 | –
7 | O=C(Oc1cc(O)c2c(c1)O[C@H](c1cc(O)c(O)c(O)c1)[C@H](O)C2)c1cc(O)c(O)c(O)c1 [epigallocatechin 7-O-gallate] | 14 | 126 | 12 | 0 | 0 | 0 | 0 | 126 ± 30 relative chromatographic area | 1 ± 0 | –
8 | desoxy elenolic acid | – | – | – | – | – | – | – | – | – | Cmax: relative maximum plasma level (human, in vivo, po, 500 mg): 124 ± 24 relative chromatographic area; observed Tmax: time required to reach Cmax (human, in vivo, po, 500 mg): 1.1 ± 0.4 h; mean chromatographic area in plasma, T0.5 (in vivo): 56; mean chromatographic area in plasma, T1 (in vivo): 123; mean chromatographic area in plasma, T2 (in vivo): 35; mean chromatographic area in plasma, T4 (in vivo): 0; mean chromatographic area in plasma, T6 (in vivo): 0; mean chromatographic area in plasma, T8 (in vivo): 0; mean chromatographic area in plasma, T10 (in vivo): 0
9 | C=Cc1ccc(O)c(OC)c1 [p-vinylguaiacol] | – | – | – | – | – | – | – | – | – | Cmax: relative maximum plasma level (human, in vivo, po, 500 mg): 184 ± 45 relative chromatographic area; observed Tmax: time required to reach Cmax (human, in vivo, po, 500 mg): 1 ± 0 h; mean chromatographic area in plasma, T0.5 (in vivo): 90; mean chromatographic area in plasma, T1 (in vivo): 184; mean chromatographic area in plasma, T2 (in vivo): 83; mean chromatographic area in plasma, T4 (in vivo): 0; mean chromatographic area in plasma, T6 (in vivo): 0; mean chromatographic area in plasma, T8 (in vivo): 0; mean chromatographic area in plasma, T10 (in vivo): 0
10 | 10-hydroxy-7 -methoxyoleuropein [10-hydroxy-7-methoxyoleuropein isomer 1] | 0 | 61 | 107 | 16 | 0 | 0 | 0 | 107 ± 22 relative chromatographic area | 2 ± 0 | –
11 | O=C(O)CCCCCCCCC(=O)O [debacic acid isomer 3, sebacic acid] | – | – | – | – | – | – | – | – | – | Cmax: relative maximum plasma level (human, in vivo, po, 500 mg): 330 ± 109 relative chromatographic area; observed Tmax: time required to reach Cmax (human, in vivo, po, 500 mg): 6 ± 2 h; mean chromatographic area in plasma, T0.5 (in vivo): 13; mean chromatographic area in plasma, T1 (in vivo): 0; mean chromatographic area in plasma, T2 (in vivo): 33; mean chromatographic area in plasma, T4 (in vivo): 209; mean chromatographic area in plasma, T6 (in vivo): 226; mean chromatographic area in plasma, T8 (in vivo): 178; mean chromatographic area in plasma, T10 (in vivo): 141
12 | COC(=O)C1=CO[C@H](O)/C(=C/CO)[C@@H]1CC(=O)OCCc1ccc(O)c(O)c1 [10-hydroxyoleuropein aglycone] | 165 | 142 | 15 | 0 | 0 | 0 | 0 | 194 ± 76 relative chromatographic area | 0.7 ± 0.2 | –
13 | homovanillyl alcohol glucuronide [homovanillyl alcohol glucuronide isomer 1] | – | – | – | – | – | – | 0 | 504 ± 154 relative chromatographic area | 1.1 ± 0.3 | mean chromatographic area in plasma, T0.5 (0.5 h after O. europaea extract, listed as homovanillic alcohol glucuronide isomer 1): 274; mean chromatographic area in plasma, T1 (1 h after O. europaea extract, listed as homovanillic alcohol glucuronide isomer 1): 503; mean chromatographic area in plasma, T2 (2 h after O. europaea extract, listed as homovanillic alcohol glucuronide isomer 1): 372; mean chromatographic area in plasma, T4 (4 h after O. europaea extract, listed as homovanillic alcohol glucuronide isomer 1): 183; mean chromatographic area in plasma, T6 (6 h after O. europaea extract, listed as homovanillic alcohol glucuronide isomer 1): 66; mean chromatographic area in plasma, T8 (8 h after O. europaea extract, listed as homovanillic alcohol glucuronide isomer 1): 26
14 | COc1cc(C(=O)O)cc(OC)c1OC [eudesmic acid] | 34 | 120 | 28 | 0 | 0 | 0 | 0 | 120 ± 27 relative chromatographic area | 1 ± 0 | –
15 | CC(=O)Oc1cc2c(c(C)c1OC(C)=O)CC=C1[C@@]2(C)CC[C@@]2(C)C3C[C@](C)(C(=O)O)CC[C@]3(C)CC[C@]12C (stereo partly shown) [dihydrocelastryl diacetate] | 0 | 38 | 150 | 163 | 81 | 38 | 20 | 239 ± 78 relative chromatographic area | 3 ± 1 | –
